Experimental data from paper PMC8100298, “Histone deacetylase inhibitor resminostat in combination with sorafenib counteracts platelet-mediated pro-tumoral effects in hepatocellular carcinoma” (Scientific Reports, 2021).
Where two headings read alike, the source gives them in different places.

Legend:
Format in all cases: cell-based
NCIH82 = experiment: Efficacy screening assay; conditions: Homo sapiens, NCI-H82, NCIH82, lung, 72 h
Method: (§1) In a two-step reaction, the substrate with the acetylated lysine side chain was incubated for with a sample containing HDAC activity to p roduce the deacetylated products: 1 h at 30°C for HDAC1, 2, 3 and 6; 30 min at RT for HDAC4, 5, 7 and 9; 2 h at 30°C for HDAC8, 10 and […]
(§2) (excitation) and 460 nm (emission). […]
(§3) The experiment was performed by Oncolead GmbH & Co. KG (Karlsfeld , Germany), based on a standardized screening procedure . Cell lines were purchased directly from the ATCC, NCI and DSMZ cell line c ollections. Cells used for the study had undergone less than 20 passages. To ensure the absence of potential contamination and wrong assignment, all cell lines were tested using a whole genome assay (Agilent, USA). All cell lines were grown as recommended by the suppliers and with addition of 100 U/mL penicillin G and 100 µg/mL; streptomycin. Cell growth and treatments were performed in Nunclon D 96 -well plates (NUNC, Germany). The optimal seeding density for each cell line was determined to ensure exponential growth for the duration of the experiment. All cells growing without anti-cancer agents were sub-conﬂuent by the end of the treatment, as determined by visual inspection.
(§4) After an initial 24 h pre-growth period, the compounds were added. The vehicle concentration […]
(§5) was 0.1% DMSO. After incubation at 37°C for 72 h, the culture medium was aspirated, and the cells were precipitated by the addition of 10% trichloroacetic acid (Sigma-Aldrich, Missouri, US). After overnight incubation at 4°C, the plates were washed three times with deionized water. The precipitates were then stained with SRB (0.4% wt/v sulforhodamine B solution in 1% acetic acid, Sigma-Aldrich, Missouri, US). Afterwards, the plates were washed six times with 1% acetic acid to remove unbound stain. After drying the plates at room temperature, the bound SRB was solubilized with 10 mM Tris base and the optical density was measured at 520 nm using a Victor2 plate reader (Perkin Elmer, Germany). Blank OD values were subtracted from mean OD values for each concentration. The nonlinear curve ﬁtting and EC50 calculations were per formed using XLﬁt and algorithm “205” (ID Business […]
(§6) For cell-based and other in vitro assays, data are presented as data mean ± SD of at least […]
(§7) For the orthotopic mouse model, data are presented as mean + SEM. For statistical analysis, one-way ANOVA and multiple comparison (Dunnett) was performed for compound treatments compared to vehicle control. The adjusted p-values with 95% confidence interval were reported as significant. For comparison of EC50 values in Figure 1F, one-way ANOVA with multiple comparison testing (Tukey) was performed. Multiplicity adjusted p -values for the EC50 with sorafenib versus resminostat for each cell line and comparison between cell lines for sorafenib are presented (95% confidence interval for significance testing). For comparison of EC50 data in Figure 2B, one-way ANOVA with multiple comparison testing (Tukey) was performed. Multiplicity adjusted p-values with 95% confidence interval was applied. For the invasion assays in Figure 4, one-way ANOVA with multiple comparison testing (Tukey) was performed. Multiplicity adjusted p-values with 95% confidence interval was applied. The adjusted p-values comparing vehicle control without vs. with platelets and compound

ACHN = experiment: Efficacy screening assay; conditions: 72 h, kidney
Method: as §1, §2, §3, §4, §5, §6, §7

A204 = experiment: Efficacy screening assay; conditions: A204, muscle
Method: as §3, §4, §5
as §7, with “one-way” for “For the orthotopic mouse model, data are presented as mean + SEM. For statistical analysis, one-way”

CACO2 = experiment: Efficacy screening assay; conditions: CACO2, colon
Method: as §3, §4, §5
as §7, with “one-way” for “For the orthotopic mouse model, data are presented as mean + SEM. For statistical analysis, one-way”

A431 = experiment: Efficacy screening assay; conditions: A431, skin
Method: as §3, §4, §5
as §7, with “one-way” for “For the orthotopic mouse model, data are presented as mean + SEM. For statistical analysis, one-way”

CAKI1 = experiment: Efficacy screening assay; conditions: CAKI1, kidney
Method: as §3, §4, §5
as §7, with “one-way” for “For the orthotopic mouse model, data are presented as mean + SEM. For statistical analysis, one-way”

A549 = experiment: Efficacy screening assay; conditions: A549, lung
Method: as §3, §4, §5
as §7, with “one-way” for “For the orthotopic mouse model, data are presented as mean + SEM. For statistical analysis, one-way”

786O = experiment: Efficacy screening assay; conditions: kidney
Method: as §3, §4, §5
as §7, with “one-way” for “For the orthotopic mouse model, data are presented as mean + SEM. For statistical analysis, one-way”

C33A = experiment: Efficacy screening assay; conditions: Homo sapiens, C-33-A, cervix, 72 h
Method: as §3, §4, §5
as §7, with “one-way” for “For the orthotopic mouse model, data are presented as mean + SEM. For statistical analysis, one-way”

BXPC3 = experiment: Efficacy screening assay; conditions: BXPC3, pancreas
Method: as §3, §4, §5
as §7, with “one-way” for “For the orthotopic mouse model, data are presented as mean + SEM. For statistical analysis, one-way”

[1] = test system: PLC/PRF/5 and SNU-475 cells; experiment: ELISA for growth factors PDGF-AA, TGF and VEGF; conditions: tissue culture supernatants, with or without platelets (Fig. S4B)
Method: A. The growth factors PDGF-AA, TGFβ and VEGF were determined from tissue culture supernatants by ELISA. PLC/PRF/5 and SNU-475 cells were cultured with increasing […]
(1 picture or pasted object on this page, not shown here) […]
amounts of platelets. In parallel, platelets were cultured without cells to determine if the growth factors were platelet derived.
B. ELSIAs for PDGF-AA, TGFβ and VEGF were performed after drug treatment of PC/PRF/5 and SNU-475 cells. Cells were cultured as indicated with or without platelets and treated with resminostat, sorafenib, the drug combination or vehicle control 0.1% DMSO.
Table S1_ EC50 cell line screen
S1D. The cancer cell lines, their tissue origins and the respective EC50 values are shown.
Each cell line was seeded in duplicates.

[2] = log of EC50, negative, read-out: log(EC50) (converted)

## CN(C)Cc1ccc(S(=O)(=O)n2ccc(/C=C/C(=O)NO)c2)cc1 [resminostat, Resminostat]
NCIH82; [2]
  EC50: 776 nM
NCIH82; read-out: EC50
  EC50: 770 nM
ACHN; Homo sapiens, log of EC50, negative, read-out: log(EC50) (converted)
  EC50: 1950 nM
ACHN; Homo sapiens, read-out: EC50
  EC50: 1950 nM
ACHN; read-out: EC50
  EC50: 1950 nM
A204; 72 h, read-out: EC50
  EC50: 910 nM
A204; Homo sapiens, A204, 72 h, log of EC50, negative, read-out: log(EC50) (converted)
  EC50: 912 nM
A204; Homo sapiens, A204, 72 h, read-out: EC50
  EC50: 906 nM
CACO2; 72 h, read-out: EC50
  EC50: 1780 nM
CACO2; Homo sapiens, Caco-2, 72 h, log of EC50, negative, read-out: log(EC50) (converted)
  EC50: 1780 nM
CACO2; Homo sapiens, Caco-2, 72 h, read-out: EC50
  EC50: 1780 nM
A431; 72 h, read-out: EC50
  EC50: 1490 nM
A431; Homo sapiens, A-431, 72 h, log of EC50, negative, read-out: log(EC50) (converted)
  EC50: 1480 nM
A431; Homo sapiens, A-431, 72 h, read-out: EC50
  EC50: 1490 nM
CAKI1; 72 h, read-out: EC50
  EC50: 3270 nM
CAKI1; Homo sapiens, CAKI-1, 72 h, log of EC50, negative, read-out: log(EC50) (converted)
  EC50: 3310 nM
CAKI1; Homo sapiens, CAKI-1, 72 h, read-out: EC50
  EC50: 3270 nM
A549; 72 h, read-out: EC50
  EC50: 3500 nM
A549; Homo sapiens, A549, 72 h, log of EC50, negative, read-out: log(EC50) (converted)
  EC50: 3470 nM
A549; Homo sapiens, A549, 72 h, read-out: EC50
  EC50: 3500 nM
786O; Homo sapiens, 786-0, 72 h, log of EC50, negative, read-out: log(EC50) (converted)
  EC50: 2570 nM
786O; Homo sapiens, 786-0, 72 h, read-out: EC50
  EC50: 2540 nM
786O; 72 h, read-out: EC50
  EC50: 2540 nM
C33A; [2]
  EC50: 1550 nM
C33A; read-out: EC50
  EC50: 1550 nM
BXPC3; 72 h, read-out: EC50
  EC50: 4230 nM
BXPC3; Homo sapiens, BXPC-3, 72 h, log of EC50, negative, read-out: log(EC50) (converted)
  EC50: 4270 nM
BXPC3; Homo sapiens, BXPC-3, 72 h, read-out: EC50
  EC50: 4220 nM
[1]
  growth factors released by platelets or secreted by HCC cells: not consistantly affected
